Earlier results as cited in US10729793B2, “Method for imaging arthritis” (GUY'S AND ST THOMAS' HOSPITAL NHS FOUNDATION TRUST, priority 2015, dated 2020).
*1 amine or outer side, *2 acyl side, *3 side chain or, on linkers, in order; H or OH if unused. Where a SMILES comes first, the peptide text is derived from it. Bridges are numbered along the chain shown (N, C = ends). Side-chain parts run from the residue outwards. The star is where a group is joined. X1 = C/C(=N/O)C(C)(C)NCCC(CCNC(C)(C)/C(C)=N\O)CCN*; Glutaryl = O=C(CCCC(=O)[*:2])[*:1]; X2 = NC(=O)COCC(=O)NCCOCCOCCOCCN*

Columns and labels:
[1] = biological target: αvβ3 integrin (Homo sapiens, UniProt P05106+P06756); details: in vitro studies
Sequence of αvβ3 integrin (P06756 31-889 limits assumed): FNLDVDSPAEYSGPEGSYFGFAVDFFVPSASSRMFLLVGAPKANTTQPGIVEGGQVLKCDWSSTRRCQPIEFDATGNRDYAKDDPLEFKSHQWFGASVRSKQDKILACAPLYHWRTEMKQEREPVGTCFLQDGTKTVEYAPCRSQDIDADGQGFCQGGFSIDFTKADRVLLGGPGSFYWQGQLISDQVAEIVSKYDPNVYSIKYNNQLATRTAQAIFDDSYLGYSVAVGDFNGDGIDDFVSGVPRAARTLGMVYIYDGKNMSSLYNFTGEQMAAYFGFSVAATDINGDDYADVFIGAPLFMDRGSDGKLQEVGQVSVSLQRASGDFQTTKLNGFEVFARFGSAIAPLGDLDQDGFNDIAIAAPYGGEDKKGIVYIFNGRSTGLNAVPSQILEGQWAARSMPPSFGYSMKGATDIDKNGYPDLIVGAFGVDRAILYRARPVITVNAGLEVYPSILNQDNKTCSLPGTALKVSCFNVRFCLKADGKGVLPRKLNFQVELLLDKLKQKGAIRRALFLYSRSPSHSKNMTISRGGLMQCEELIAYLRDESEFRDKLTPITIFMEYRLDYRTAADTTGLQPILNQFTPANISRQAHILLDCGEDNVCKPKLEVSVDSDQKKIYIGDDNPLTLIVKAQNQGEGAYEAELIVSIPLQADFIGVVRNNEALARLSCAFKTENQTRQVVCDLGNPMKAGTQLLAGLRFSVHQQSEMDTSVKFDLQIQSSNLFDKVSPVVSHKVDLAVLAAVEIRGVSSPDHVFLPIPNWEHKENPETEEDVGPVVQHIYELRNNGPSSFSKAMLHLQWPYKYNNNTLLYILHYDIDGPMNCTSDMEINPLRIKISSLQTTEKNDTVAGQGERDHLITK
Sequence of αvβ3 integrin (P06756 891-1048 partner limits assumed): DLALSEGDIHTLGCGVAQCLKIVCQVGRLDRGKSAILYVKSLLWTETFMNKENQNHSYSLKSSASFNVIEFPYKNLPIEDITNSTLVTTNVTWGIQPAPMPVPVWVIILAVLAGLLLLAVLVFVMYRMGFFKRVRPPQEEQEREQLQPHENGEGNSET
Sequence of αvβ3 integrin (P05106 27-788): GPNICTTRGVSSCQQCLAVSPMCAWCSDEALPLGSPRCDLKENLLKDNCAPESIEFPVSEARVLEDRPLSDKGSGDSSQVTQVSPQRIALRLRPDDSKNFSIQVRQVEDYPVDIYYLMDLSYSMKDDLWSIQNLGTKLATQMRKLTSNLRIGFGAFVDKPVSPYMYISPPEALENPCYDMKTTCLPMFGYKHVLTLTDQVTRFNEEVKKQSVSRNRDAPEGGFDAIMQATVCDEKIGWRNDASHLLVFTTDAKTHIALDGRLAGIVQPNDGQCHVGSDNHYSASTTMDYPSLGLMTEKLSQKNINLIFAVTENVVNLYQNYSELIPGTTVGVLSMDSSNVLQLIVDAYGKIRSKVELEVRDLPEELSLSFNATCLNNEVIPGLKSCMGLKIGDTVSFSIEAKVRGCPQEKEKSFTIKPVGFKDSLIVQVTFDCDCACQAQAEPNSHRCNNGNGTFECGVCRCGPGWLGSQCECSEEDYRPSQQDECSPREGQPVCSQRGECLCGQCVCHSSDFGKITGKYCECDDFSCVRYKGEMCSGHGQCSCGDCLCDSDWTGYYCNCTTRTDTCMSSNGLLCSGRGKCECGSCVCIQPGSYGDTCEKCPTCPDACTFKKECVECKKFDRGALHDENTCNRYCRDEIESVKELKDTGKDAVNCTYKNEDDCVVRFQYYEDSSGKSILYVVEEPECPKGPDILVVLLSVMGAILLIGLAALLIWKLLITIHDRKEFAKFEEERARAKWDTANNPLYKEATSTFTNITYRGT

[2] = 10 subjects, at 4 months
[3] = healthy volunteers

Which “binding affinity for the αvβ3 integrin” value [1] does the source give for `C/C(=N/O)C(C)(C)NCCC(CCNC(=O)CCCC(=O)NCCCC[C@@H]1NC(=O)CSC[C@@H](C(=O)NCCOCCOCCOCCNC(=O)COCC(N)=O)NC(=O)[C@H](Cc2ccccc2)NC(=O)[C@@H]2CSSC[C@H](NC1=O)C(=O)N[C@@H](CCCNC(=N)N)C(=O)NCC(=O)N[C@@H](CC(=O)O)C(=O)N2)CCNC(C)(C)/C(C)=N\O` (stereo partly drawn) [NC100692, maraciclatide] ({CH2CO}-K([Glutaryl-X1])CRGDCFC-X2; disulfide 2-6; thioether N-8) here?
The value was “high binding affinity”.

And the “antibodies to the peptide (immunogenicity)” value [2]?
Its value is “no detectable antibodies”.

What about the mean elimination half-life [3] of the same compound?
The mean elimination half-life was “approximately one”.
